Counter-ions that a name gives are not always drawn. Like-named read-outs stand apart in the source and are kept apart here.

Results on four compounds are retold here after publication PMC6566782, “Prodrugs for Skin Delivery of Menahydroquinone-4, an Active Form of Vitamin K2(20), Could Overcome the Photoinstability and Phototoxicity of Vitamin K2(20)” (International Journal of Molecular Sciences, 2019).

A short description of data set [1]: Photostability in ethanol under artificial sunlight (12,000 lx), LC-MS/MS. The data set is classed as physicochemical. Particulars: for main degradation product: sunlight irradiation (MKH-SUC also under shading); for photostability relative to MK-4: ethanol; for half-life at 1 µM: ethanol solution in quartz cells, read-out: half-life (t1/2) of degradation (converted). The protocol:
The relative irradiance of artificial sunlight at wavelengths of 300 to 800 nm is almost equal to that of natural sunlight, according to the manufacturer. […] MKH-SUC concentration decreased according to an apparent first order rate both with and without shading, although the rate of decrease was accelerated without shading. MKH-DMG and MKH-SUC were more photostable than MK-4 by ca. 50- and 3-fold, respectively.
(§1) Solutions of MK-4 and MKH derivatives in ethanol (1 µM) were irradiated with artificial sunlight (SOLAX 100 W XC-100 B, Seric Ltd., Tokyo, Japan) at 12,000 lx in quartz cells. Illuminance was measured using a digital luminometer (LX-1108, Mother Tool). Irradiation samples (1 µM in ethanol) were irradiated with artificial sunlight at 12,000 lx, and with monochromatic light (279, 341, 373, 404, and 435 nm) using a multi-wavelength irradiation spectrometer (MM 3, Bunkoukeiki Co., Ltd., Tokyo, Japan). Irradiation intensity was measured using an irradiation energy measurement power meter (MM 3, Bunkoukeiki Co., Ltd.).
(§2) LC-MS/MS was performed using an LCMS-8050 Liquid Chromatograph Mass Spectrometer (Shimadzu, Kyoto, Japan) and Shimadzu HPLC System (system controller (CBM-20A), pump (LD-20AD), degasser (DGU-20As), UV detector (SPD-20A), and auto injector (SIL-20AC HT)). Separations were performed on a CAPCELL PAK C18 UG120 (3 μm, 2.0 mm × 100 mm, Shiseido Co., Ltd., Tokyo, Japan) using a mobile phase of 10 mmol/L ammonium acetate and 0.1% acetic acid in methanol and water (97:3) at a flow rate of 0.4 mL/min. Column temperature was maintained at 40 °C. The mass spectrometer was equipped with an electrospray ionization and was run in positive ion mode. Identification and quantitation were based on MS/MS-multiple reaction monitoring mode using transition ions as follows: m/z 445 → 187 for the [M+H]^+ MK-4 adduct, m/z 445 → 187 for the [M + H]^+ chromenol adduct, 619 → 58 for the [M + H]^+ MKH-DMG adduct, m/z 532 → 58 for the [M + H]^+ MKH-mono-DMG adduct, m/z 664 → 187 for the [M + H]^+ MKH-SUC adduct, m/z 564 → 187 for the [M + H]^+ MKH-mono-SUC adduct, and m/z 461 → 81 for the [M + H]^+ MKO adduct.

A short description of data set [2]: Photostability in ethanol under monochromatic light of different wavelengths, LC-MS/MS. The data set is classed as physicochemical. More on the design: key: -: No decomposition. Particulars: 1 µM in ethanol, 25 °C. On the procedure:
To evaluate the effect of irradiation wavelength on photostability of MK-4 and MKH-ester derivatives, 1 μM solutions of MK-4, MKH-DMG, and MKH-SUC in ethanol were irradiated with a xenon light source monochromatic light at 279, 341, 373, 404, or 435 nm, and the concentration of each compound was measured by LC-MS/MS. The log of concentration of each compound was plotted against irradiation energy (Figure 3), and the rates and half-life energies of degradation were obtained from slopes (Table 2). […] Hydrolytic degradations of MKH-DMG and MKH-SUC to their corresponding monoesters were accelerated only at the short wavelength of 279 nm (Figure 3B,C).
as §1, §2

Data set [3] is described as follows: Singlet oxygen generation assay (p-nitrosodimethylaniline-based ROS assay) after UVA irradiation. The format is physicochemical. Particulars: phosphate-buffered aqueous solution pH 7.4, UVA irradiation 0–15 J/cm^2. The protocol: It has been reported that singlet oxygen promotes the peroxidation of skin surface lipids, resulting in the induction of skin inflammation. Thus, we measured the irradiation intensity-dependent generation of singlet oxygen by MK-4, MKH-DMG, and MKH-SUC in phosphate-buffered aqueous solution after UVA irradiation using a p-nitrosodimethylaniline-based ROS assay (Figure 4).
MK-4 and MKH derivatives were dissolved in a phosphate buffer (NaPB, pH 7.4) containing 0.2% polyoxyethylene hydrogenated castor oil 40 (HCO 40, obtained as a gift sample from Nikko Chemicals Co., Ltd., Osaka, Japan), 2% dimethyl sulfoxide, and 0.1% glycerol. The solutions were treated according to the singlet oxygen assay method (The Japanese Center for the Validation of Alternative Methods, JaCVAM) and irradiated with UVA light from a CL-1000L UV Crosslinker (UVP, Upland, CA, USA). Absorbance was measured using an Infinite M200 PRO (Tecan Life Sciences, Zurich, Switzerland).

Data set [4] deals with HaCaT cells. As to the kind of experiment: Intracellular ROS generation assay (DCFH-DA) with or without UVA irradiation. The format is cell-based, Human. Particulars: UVA irradiation 15 J/cm^2. The protocol:
(§3) The in vitro phototoxicity of MK-4 and MKH derivatives were assessed by measuring the intracellular ROS generation and the viability of human epidermal keratinocyte cells (HaCaT) after UVA irradiation in the presence or absence of MK-4 and MKH derivatives. Intracellular ROS generation was determined using the cell permeable probe 2′,7′-dichlorofluorescein diacetate (DCFH-DA), which rapidly reacts with hydroxyl radicals. Cells without drug treatment or UVA irradiation were used as the control. ROS generation and cell viability are shown in Figure 5 and Figure 6, respectively.
Intracellular ROS generation was measured using 2′,7′-dichlorofluorescein diacetate (DCFH-DA; Invitrogen, Carlsbad, CA, USA) as a fluorescent probe. HaCaT cells were seeded at 1.0 × 10^5 cells/well in 96-well plates and cultured overnight. Thereafter, cells were washed with PBS and incubated with 10 µM DCFH-DA solution in PBS at 37 °C for 1 h. Following incubation, test compound solutions in PBS described above were added to each well and re-incubated for 1 h. After incubation, cells were irradiated with UVA at an irradiation intensity of 15 J/cm^2 and the fluorescence intensity (Ex: 485 nm, Em: 530 nm) was measured using an Infinite M200 PRO (Tecan Life Sciences).

Data set [5] concerns HaCaT cells. As to the kind of experiment: Cell viability assay (CellTiter-Glo) 24 h after UVA irradiation. The format is cell-based, Human. Particulars: 24 h after UVA irradiation 15 J/cm^2. The protocol:
as §3
HaCaT cells were seeded at 1.0 × 10^5 cells/well in 96-well plates and cultured overnight. Thereafter, cells were washed with PBS, and test compound solutions in PBS described above were added to each well and re-incubated for 1 h. After incubation, cells were irradiated with UVA at an irradiation intensity of 15 J/cm^2. After irradiation, cells were washed twice with PBS and replaced in culture medium. After 24 h incubation, cell viability was measured using a CellTiter-Glo® Luminescent Cell Viability Assay (Promega, Madison, WI, USA).
Background: In ATP-based viability assays light output follows the ATP content of the culture.

Data set [6] concerns hepatocellular carcinoma (HCC) cells. More on the design: method as in PMID 30013007. Particulars: compared with MK-4 ref 17; cited from earlier work.
Details of data set [7]: method as in PMID 7724483. The note with it: physiological pH 7.4 ref 14; cited from earlier work.
The subject of data set [8] is cultured epidermis. Details: method as in doi:10.2772/23121. Particulars: UVA irradiation ref 13; cited from earlier work.
[9] abbreviates: 1 µM in ethanol, artificial sunlight 12,000 lx, 25 °C.
[10] abbreviates: 1 µM in ethanol, shading (covered with aluminum foil during irradiation), 25 °C.
Setting [11] is: artificial sunlight 12,000 lx, 25 °C.

Take `CC(C)=CCC/C(C)=C/CC/C(C)=C/CC/C(C)=C/Cc1c(C)c(OC(=O)CCC(=O)O)c2ccccc2c1OC(=O)CCC(=O)O` [MKH-SUC, menahydroquinone-4 1,4-bis-hemisuccinate]: the results for the “apparent first order rate constant (k) of degradation” value in data set [1] (setting [9]) and in data set [1] (setting [10]) were 2.796 h⁻¹ and 0.883 h⁻¹, respectively. Besides, in data set [1] (1 µM in ethanol), the main degradation product entry was “MKH-mono-SUC”. The “photostability relative to MK-4” value in data set [1] (setting [11]) is recorded as around 3 fold. The half-life at 1 µM in data set [1] (setting [9]) is 14.9 min; in data set [1] (setting [10]) it was 47.1 min. Besides, the “rate constant (k) of degradation” value in data set [2] (monochromatic light 279 nm) came to 0.110 J^−1·cm^2; in data set [2] (monochromatic light 341 nm) it was 0.069 J^−1·cm^2; in data set [2] (monochromatic light 373 nm), 0.059 J^−1·cm^2; in data set [2] (monochromatic light 404 nm), 0.061 J^−1·cm^2; in data set [2] (monochromatic light 435 nm), 0.068 J^−1·cm^2. Besides, in data set [3], the singlet oxygen generation entry was “little generation of singlet oxygen”. The “intracellular ROS level” value in data set [4] is reported as “no significant changes”. Further, in data set [5], the cell viability entry was “unaffected”. Moreover, the “delivery of MKH into HCC cells” value in data set [6] is “more effectively than MK-4”.

With `CC(C)=CCC/C(C)=C/CC/C(C)=C/CC/C(C)=C/Cc1c(C)c(OC(=O)CN(C)C)c2ccccc2c1OC(=O)CN(C)C` [MKH-DMG, menahydroquinone-4 1,4-bis-N,N-dimethylglycinate hydrochloride], the “apparent first order rate constant (k) of degradation” value in data set [1] (setting [9]) was 0.167 h⁻¹. In data set [1] (1 µM in ethanol, shading, 25 °C), the “concentration change under shading” value was “unchanged under shading”. Also, the main degradation product result in data set [1] (1 µM in ethanol) is reported as “MKH-mono-DMG”. Also, the “photostability relative to MK-4” value in data set [1] (setting [11]) is recorded as “ca. 50 fold”. Also, the half-life at 1 µM in data set [1] (setting [9]) is 249 min. Further, the “rate constant (k) of degradation” value in data set [2] (monochromatic light 279 nm) is given as 0.146 J^−1·cm^2; in data set [2] (monochromatic light 341 nm) it was “- ^b”; in data set [2] (monochromatic light 373 nm), “- ^b”; in data set [2] (monochromatic light 404 nm), “- ^b”; in data set [2] (monochromatic light 435 nm), “- ^b”. In addition, the “half-life energy (E1/2) of degradation” value in data set [2] (monochromatic light 341 nm), in data set [2] (monochromatic light 373 nm), in data set [2] (monochromatic light 404 nm) and in data set [2] (monochromatic light 435 nm) was “- ^b” in each case. For the same compound, in data set [3], the singlet oxygen generation result is given as “little generation of singlet oxygen”. Besides, the “intracellular ROS level” value in data set [4] is given as “no significant changes”. In addition, the cell viability entry in data set [5] is given as “unaffected”. Moreover, in data set [7], the “partition coefficient (log P)” value is on record as 3.66. The “delivery of MKH into HCC cells” value in data set [6] is “more effectively than MK-4”.

With `CC1=C(C/C=C(\C)CCC[C@H](C)CCC[C@H](C)CCCC(C)C)C(=O)c2ccccc2C1=O` [vitamin K1], the “phototoxicity against cultured epidermis” value in data set [8] is recorded as “exhibits phototoxicity”.

For the compound `COc1cc(O)c(C(=O)c2ccccc2)cc1S(=O)(=O)O` [sulisobenzone, reference compound], in data set [3], the singlet oxygen generation result is on record as “little generation of singlet oxygen”.
